Source: PubChem BioAssay (NCI)
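These data come from cells grown in 96-well plates and exposed to compound for 48 hours at five concentrations. At the TGI there is no net growth.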

Legend:
Assay in all cases: DTP human tumour cell line panel, 48 h
KM12 colon = system: KM12 colon
SK-MEL-28 melanoma = system: SK-MEL-28 melanoma
BT-549 breast = system: BT-549 breast
SNB-19 CNS = system: SNB-19 CNS
EKVX NSCLC = system: EKVX NSCLC
UACC-62 melanoma = system: UACC-62 melanoma
SF-268 CNS = system: SF-268 CNS
NCI-H460 lung = system: NCI-H460 lung
CCRF-CEM leukemia = system: CCRF-CEM leukemia
MDA-MB-231 breast = system: MDA-MB-231 breast
UACC-257 melanoma = system: UACC-257 melanoma
HCT-116 colon = system: HCT-116 colon
HOP-92 NSCLC = system: HOP-92 NSCLC
NCI-H23 lung = system: NCI-H23 lung
HCC-2998 colon = system: HCC-2998 colon
NCI/ADR-RES ovarian = system: NCI/ADR-RES ovarian
SK-OV-3 ovarian = system: SK-OV-3 ovarian
OVCAR-4 ovarian = system: OVCAR-4 ovarian
786-0 renal = system: 786-0 renal
SK-MEL-2 melanoma = system: SK-MEL-2 melanoma
COLO 205 colon = system: COLO 205 colon
HS 578T breast = system: HS 578T breast
MALME-3M melanoma = system: MALME-3M melanoma
OVCAR-8 ovarian = system: OVCAR-8 ovarian
NCI-H522 lung = system: NCI-H522 lung
HL-60(TB) leukemia = system: HL-60(TB) leukemia
IGROV1 ovarian = system: IGROV1 ovarian
M14 melanoma = system: M14 melanoma
MCF7 breast = system: MCF7 breast
SR leukemia = system: SR leukemia
NCI-H226 lung = system: NCI-H226 lung
K-562 leukemia = system: K-562 leukemia
UO-31 renal = system: UO-31 renal
U251 CNS = system: U251 CNS
TK-10 renal = system: TK-10 renal
HOP-62 NSCLC = system: HOP-62 NSCLC
T-47D breast = system: T-47D breast
HCT-15 colon = system: HCT-15 colon
SK-MEL-5 melanoma = system: SK-MEL-5 melanoma
PC-3 prostate = system: PC-3 prostate
MDA-N = system: MDA-N
A549 NSCLC = system: A549 NSCLC
SNB-75 CNS = system: SNB-75 CNS
ACHN renal = system: ACHN renal
RXF 393 renal = system: RXF 393 renal
SF-295 CNS = system: SF-295 CNS
OVCAR-3 ovarian = system: OVCAR-3 ovarian
SN12C renal = system: SN12C renal
CAKI-1 renal = system: CAKI-1 renal
OVCAR-5 ovarian = system: OVCAR-5 ovarian
MOLT-4 leukemia = system: MOLT-4 leukemia
LOX IMVI melanoma = system: LOX IMVI melanoma
HT29 colon = system: HT29 colon
DU-145 prostate = system: DU-145 prostate
RPMI-8226 leukemia = system: RPMI-8226 leukemia
MDA-MB-435 = system: MDA-MB-435
A498 renal = system: A498 renal
SW-620 colon = system: SW-620 colon
SF-539 CNS = system: SF-539 CNS

Q: Which TGI (KM12 colon) does the source give for COc1cc(C=C(c2ccc(N(C)C)cc2)c2ccc(N(C)C)cc2)c2ccccc2c1OC here?
A: > 100 µM

Q: What about the TGI (SK-MEL-28 melanoma) of the same compound?
A: > 100 µM

Q: And the TGI (BT-549 breast)?
A: > 100 µM

Q: And the TGI (SNB-19 CNS)?
A: > 100 µM

Q: What about the TGI (EKVX NSCLC) of the same compound?
A: > 100 µM

Q: And the TGI (UACC-62 melanoma)?
A: > 100 µM

Q: What about the TGI (SF-268 CNS) of the same compound?
A: > 100 µM

Q: And the TGI (NCI-H460 lung)?
A: > 100 µM

Q: And the TGI (CCRF-CEM leukemia)?
A: > 100 µM

Q: And the TGI (MDA-MB-231 breast)?
A: > 100 µM

Q: What about the TGI (UACC-257 melanoma) of the same compound?
A: > 100 µM

Q: And the TGI (HCT-116 colon)?
A: > 100 µM

Q: What about the TGI (HOP-92 NSCLC) of the same compound?
A: > 100 µM

Q: And the TGI (NCI-H23 lung)?
A: > 100 µM

Q: What about the TGI (HCC-2998 colon) of the same compound?
A: > 100 µM

Q: What about the TGI (NCI/ADR-RES ovarian) of the same compound?
A: > 100 µM

Q: What about the TGI (SK-OV-3 ovarian) of the same compound?
A: > 100 µM

Q: What about the TGI (OVCAR-4 ovarian) of the same compound?
A: > 100 µM

Q: And the TGI (786-0 renal)?
A: > 100 µM

Q: What about the TGI (SK-MEL-2 melanoma) of the same compound?
A: > 100 µM

Q: And the TGI (COLO 205 colon)?
A: > 100 µM

Q: And the TGI (HS 578T breast)?
A: > 100 µM

Q: What about the TGI (MALME-3M melanoma) of the same compound?
A: > 100 µM

Q: What about the TGI (OVCAR-8 ovarian) of the same compound?
A: > 100 µM

Q: What about the TGI (NCI-H522 lung) of the same compound?
A: > 100 µM

Q: What about the TGI (HL-60(TB) leukemia) of the same compound?
A: > 100 µM

Q: And the TGI (IGROV1 ovarian)?
A: > 100 µM

Q: And the TGI (M14 melanoma)?
A: > 100 µM

Q: And the TGI (MCF7 breast)?
A: > 100 µM

Q: And the TGI (SR leukemia)?
A: > 100 µM

Q: What about the TGI (NCI-H226 lung) of the same compound?
A: > 100 µM

Q: What about the TGI (K-562 leukemia) of the same compound?
A: > 100 µM

Q: What about the TGI (UO-31 renal) of the same compound?
A: > 100 µM

Q: And the TGI (U251 CNS)?
A: > 100 µM

Q: And the TGI (TK-10 renal)?
A: > 100 µM

Q: What about the TGI (HOP-62 NSCLC) of the same compound?
A: > 100 µM

Q: What about the TGI (T-47D breast) of the same compound?
A: > 100 µM

Q: And the TGI (HCT-15 colon)?
A: > 100 µM

Q: What about the TGI (SK-MEL-5 melanoma) of the same compound?
A: > 100 µM

Q: And the TGI (PC-3 prostate)?
A: > 100 µM

Q: What about the TGI (MDA-N) of the same compound?
A: 40.7 µM

Q: And the TGI (A549 NSCLC)?
A: > 100 µM

Q: And the TGI (SNB-75 CNS)?
A: > 100 µM

Q: And the TGI (ACHN renal)?
A: > 100 µM

Q: And the TGI (RXF 393 renal)?
A: > 100 µM

Q: And the TGI (SF-295 CNS)?
A: > 100 µM

Q: What about the TGI (OVCAR-3 ovarian) of the same compound?
A: 74 µM

Q: What about the TGI (SN12C renal) of the same compound?
A: > 100 µM

Q: And the TGI (CAKI-1 renal)?
A: > 100 µM

Q: And the TGI (OVCAR-5 ovarian)?
A: > 100 µM

Q: What about the TGI (MOLT-4 leukemia) of the same compound?
A: > 100 µM

Q: What about the TGI (LOX IMVI melanoma) of the same compound?
A: > 100 µM

Q: And the TGI (HT29 colon)?
A: > 100 µM

Q: And the TGI (DU-145 prostate)?
A: > 100 µM

Q: And the TGI (RPMI-8226 leukemia)?
A: > 100 µM

Q: What about the TGI (MDA-MB-435) of the same compound?
A: > 100 µM

Q: With O=C1C=CC(O)(C#CCO)C=C1 as the compound, how does the TGI (KM12 colon) read?
A: 32.6 µM

Q: What about the TGI (SK-MEL-28 melanoma) of the same compound?
A: 25.5 µM

Q: What about the TGI (BT-549 breast) of the same compound?
A: 26.7 µM

Q: What about the TGI (SNB-19 CNS) of the same compound?
A: > 56.8 µM

Q: And the TGI (EKVX NSCLC)?
A: 40.3 µM

Q: What about the TGI (UACC-62 melanoma) of the same compound?
A: 29.3 µM

Q: And the TGI (SF-268 CNS)?
A: 34.1 µM

Q: What about the TGI (NCI-H460 lung) of the same compound?
A: 48.8 µM

Q: What about the TGI (CCRF-CEM leukemia) of the same compound?
A: 62.2 µM

Q: What about the TGI (MDA-MB-231 breast) of the same compound?
A: 33.7 µM

Q: And the TGI (UACC-257 melanoma)?
A: 27.7 µM

Q: What about the TGI (HCT-116 colon) of the same compound?
A: > 53.9 µM

Q: What about the TGI (A498 renal) of the same compound?
A: 46 µM

Q: What about the TGI (HOP-92 NSCLC) of the same compound?
A: 5.8 µM

Q: And the TGI (NCI-H23 lung)?
A: 34.5 µM

Q: What about the TGI (HCC-2998 colon) of the same compound?
A: 31.3 µM

Q: And the TGI (NCI/ADR-RES ovarian)?
A: 30.3 µM

Q: And the TGI (SK-OV-3 ovarian)?
A: > 100 µM

Q: What about the TGI (OVCAR-4 ovarian) of the same compound?
A: 25.9 µM

Q: And the TGI (786-0 renal)?
A: > 42 µM

Q: And the TGI (SK-MEL-2 melanoma)?
A: 33.2 µM

Q: And the TGI (COLO 205 colon)?
A: > 50.2 µM

Q: And the TGI (HS 578T breast)?
A: > 76.5 µM

Q: What about the TGI (OVCAR-8 ovarian) of the same compound?
A: 39.7 µM

Q: What about the TGI (NCI-H522 lung) of the same compound?
A: 4.16 µM

Q: And the TGI (HL-60(TB) leukemia)?
A: 15.8 µM

Q: What about the TGI (IGROV1 ovarian) of the same compound?
A: 25.6 µM

Q: And the TGI (M14 melanoma)?
A: 44 µM

Q: And the TGI (MCF7 breast)?
A: 18.5 µM

Q: And the TGI (SR leukemia)?
A: > 100 µM

Q: What about the TGI (NCI-H226 lung) of the same compound?
A: 28.1 µM

Q: And the TGI (K-562 leukemia)?
A: > 100 µM

Q: What about the TGI (UO-31 renal) of the same compound?
A: 32.3 µM

Q: What about the TGI (U251 CNS) of the same compound?
A: 23.8 µM

Q: What about the TGI (TK-10 renal) of the same compound?
A: 25.8 µM

Q: And the TGI (HOP-62 NSCLC)?
A: 71.7 µM

Q: What about the TGI (T-47D breast) of the same compound?
A: 41.6 µM

Q: What about the TGI (HCT-15 colon) of the same compound?
A: 10.1 µM

Q: What about the TGI (SK-MEL-5 melanoma) of the same compound?
A: > 100 µM

Q: What about the TGI (PC-3 prostate) of the same compound?
A: 31.8 µM

Q: What about the TGI (SW-620 colon) of the same compound?
A: 15.3 µM

Q: And the TGI (MDA-N)?
A: 23 µM

Q: And the TGI (A549 NSCLC)?
A: > 60.2 µM

Q: What about the TGI (SNB-75 CNS) of the same compound?
A: 37.4 µM

Q: What about the TGI (ACHN renal) of the same compound?
A: 26.6 µM

Q: What about the TGI (RXF 393 renal) of the same compound?
A: 10.8 µM

Q: And the TGI (SF-295 CNS)?
A: > 100 µM

Q: And the TGI (OVCAR-3 ovarian)?
A: 31 µM

Q: What about the TGI (SN12C renal) of the same compound?
A: 30.6 µM

Q: And the TGI (CAKI-1 renal)?
A: 10.8 µM

Q: And the TGI (OVCAR-5 ovarian)?
A: 26.9 µM

Q: And the TGI (SF-539 CNS)?
A: 30.8 µM

Q: And the TGI (MOLT-4 leukemia)?
A: > 100 µM

Q: And the TGI (LOX IMVI melanoma)?
A: 23.3 µM

Q: And the TGI (HT29 colon)?
A: 29.7 µM

Q: What about the TGI (DU-145 prostate) of the same compound?
A: 31.6 µM

Q: What about the TGI (RPMI-8226 leukemia) of the same compound?
A: 22 µM

Q: And the TGI (MDA-MB-435)?
A: 26.9 µM
